Laboratory results as given in publication PMC8585718 (European journal of medicinal chemistry, 2021).
Structures can show the parent of a compound that is named as a salt.

Columns and labels:
[1] = target: ZVpro (Zika virus NS2B-NS3 protease) (Zika virus, UniProt A0A024B7W1); assay: Fluorescence-based biochemical assay of ZVpro inhibition; details: for ZVpro IC50: enzyme 1 nM, substrate 10 μM, HEPES pH 7.3
[2] = target: DV2pro (NS2B-NS3 protease from DENV serotype-2) (Dengue virus type 2, UniProt P29990); assay: Fluorescence-based biochemical assay of DV2pro inhibition; details: IC50 vs substrate concentration 0.5 to 50 μM
ZIKV-FLR in U87 cells = assay: Anti-ZIKV activity in U87 cells; type: cell-based, Zika virus

O=C(NCC1CCNCC1)c1cc2ccc(-c3ccc(OC(F)(F)F)cc3)cc2[nH]1 [Compound 51, N-(Piperidin-4-ylmethyl)-6-(4-(trifluoromethoxy)phenyl)-1H-indole-2-carboxamide Hydrochloride]
IC50 [1]: 3.2 µM

CC(C)(C)c1ccc(-c2ccc3c(ccn3Cc3ccc(-c4ccncc4)cc3)c2)cc1 [Compound 5, 5-(4-(Tert-butyl)phenyl)-1-(4-(pyridin-4-yl)benzyl)-1H-indole Hydrochloride]
IC50 [1]: > 50 µM | ZVpro IC50 [1]: inactive

O=C(NCC1CCNCC1)c1c[nH]c2ccc(-c3ccc(F)cc3)cc12 [Compound 16, 5-(4-fluorophenyl)-N-(piperidin-4-ylmethyl)-1H-indole-3-carboxamide Hydrochloride]
IC50 [1]: > 50 µM

CC(C)(C)c1ccc(-c2ccc3sc(C(=O)NC4CCNCC4)cc3c2)cc1 [Compound 11, 5-(4-(Tert-butyl)phenyl)-N-(piperidin-4-yl)benzo[b]thiophene-2-carboxamide Hydrochloride]
IC50 [1]: 3.2 µM

N#Cc1ccc(-c2ccc3c(C(=O)NC4CCNCC4)coc3c2)cc1 [Compound 69, 6-(4-Cyanophenyl)-N-(piperidin-4-yl)benzofuran-3-carboxamide Hydrochloride]
IC50 [1]: > 50 µM

CC(C)(C)c1ccc(-c2ccc3c(C(=O)NC4CCNCC4)coc3c2)cc1 [Compound 13, 6-(4-(Tert-butyl)phenyl)-N-(piperidin-4-yl)benzofuran-3-carboxamide Hydrochloride]
IC50 [1]: 5.1 µM

CC(C)(C)c1ccc(-c2ccc3[nH]c(C(=O)NCC4CCNCC4)nc3c2)cc1 [Compound 10, 5-(4-(tert-butyl)phenyl)-N-(piperidin-4-ylmethyl)-1H-benzo[d]imidazole-2 carboxamide Hydrochloride]
IC50 [1]: 3.1 µM

CC(C)(C)c1ccc(-c2ccc3c(ccn3Cc3ccc(-c4ccoc4)cc3)c2)cc1 [Compound 4, 5-(4-(Tert-butyl)phenyl)-1-(4-(furan-3-yl)benzyl)-1H-indole Hydrochloride]
IC50 [1]: > 50 µM | ZVpro IC50 [1]: inactive

O=C(NCC1CCNCC1)c1c[nH]c2cc(-c3ccc(F)cc3)ccc12 [Compound 20, 6-(4-fluorophenyl)-N-(piperidin-4-ylmethyl)-1H-indole-3-carboxamide Hydrochloride]
IC50 [1]: > 50 µM

O=Cc1cccc(-c2ccc3[nH]cc(C(=O)NCC4CCNCC4)c3c2)c1 [Compound 18, 5-(3-formylphenyl)-N-(piperidin-4-ylmethyl)-1H-indole-3-carboxamide Hydrochloride]
IC50 [1]: > 50 µM

O=C(NCC1CCNCC1)c1cc2cc(-c3cccnc3)ccc2[nH]1 [Compound 33, N-(Piperidin-4-ylmethyl)-5-(pyridin-3-yl)-1H-indole-2-carboxamide Hydrochloride]
IC50 [1]: > 50 µM

O=C(NCC1CCNCC1)c1c[nH]c2cc(-c3ccccc3F)ccc12 [Compound 21, 6-(2-fluorophenyl)-N-(piperidin-4-ylmethyl)-1H-indole-3-carboxamide Hydrochloride]
IC50 [1]: > 50 µM

N#Cc1ccc(-c2ccc3[nH]cc(C(=O)NC4CCNCC4)c3c2)cc1 [Compound 14, 5-(4-cyanophenyl)-N-(piperidin-4-yl)-1H-indole-3-carboxamide Hydrochloride]
IC50 [1]: > 50 µM

O=C(NCC1CCNCC1)c1cc2ccc(-c3ccoc3)cc2[nH]1 [Compound 66, 6-(Furan-3-yl)-N-(piperidin-4-ylmethyl)-1H-indole-2-carboxamide Hydrochloride]
mode of inhibition against DV2pro [2]: non-competitive | mode of inhibition against ZVpro ([1]; IC50 vs substrate concentration 0.5 to 10 μM): non-competitive | log reduction of ZIKV replication in U87 cells (ZIKV-FLR in U87 cells; at 1 μM): 0.5 log | log reduction of ZIKV replication in U87 cells (ZIKV-FLR in U87 cells; at 10 μM): 2 log

COc1cc(-c2ccc3[nH]cc(C(=O)NC4CCNCC4)c3c2)cc(OC)c1OC [Compound 15, N-(piperidin-4-yl)-5-(3,4,5-trimethoxyphenyl)-1H-indole-3-carboxamide Hydrochloride]
IC50 [1]: > 50 µM

CC(C)(C)c1ccc(-c2ccc3cc(C(=O)NCC4CCNCC4)[nH]c3c2)cc1 [Compound 8, 6-(4-(Tert-butyl)phenyl)-N-(piperidin-4-ylmethyl)-1H-indole-2-carboxamide Hydrochloride]
IC50 [1]: 1.3 µM

CC(C)(C)c1ccc(-c2ccc3cc(C(=O)NC4CCNCC4)sc3c2)cc1 [Compound 12, 6-(4-(Tert-butyl)phenyl)-N-(piperidin-4-yl)benzo[b]thiophene-2-carboxamide Hydrochloride]
IC50 [1]: 2.1 µM

CC(C)(C)c1ccc(-c2ccc3c(C(=O)NCC4CCNCC4)c[nH]c3n2)cc1 [Compound 9, 6-(4-(tert-butyl)phenyl)-N-(piperidin-4-ylmethyl)-1H-pyrrolo[2,3-b]pyridine-3-carboxamide Hydrochloride]
IC50 [1]: 9.1 µM

O=C(NCC1CCNCC1)c1c[nH]c2ccc(-c3ccc(F)cc3F)cc12 [Compound 17, 5-(2,4-difluorophenyl)-N-(piperidin-4-ylmethyl)-1H-indole-3-carboxamide Hydrochloride]
IC50 [1]: > 50 µM

NCc1ccc(-c2ccc3c(C(=O)NCC4CCNCC4)c[nH]c3c2)cc1 [Compound 23, 6-(4-(aminomethyl)phenyl)-N-(piperidin-4-ylmethyl)-1H-indole-3-carboxamide Hydrochloride]
IC50 [1]: > 50 µM

COc1cc(-c2ccc3c(C(=O)NCC4CCNCC4)c[nH]c3c2)cc(OC)c1OC [Compound 19, N-(piperidin-4-ylmethyl)-6-(3,4,5-trimethoxyphenyl)-1H-indole-3-carboxamide Hydrochloride]
IC50 [1]: > 50 µM
